Here are results for seven compounds from patent publication US9687497B1, “Salts and polymorphs of cyclic boronic acid ester derivatives and therapeutic uses thereof” (Rempex Pharmaceuticals, Inc., priority 2014, dated 2017).

The nature of data set [1]: Open-air handling and stability of isolated potassium salt. Format: physicochemical. The method, then: The potassium salt was subsequently reproduced at 50 mg and 300 mg scales using seeding, which facilitated crystallization of the several hours of amorphous intermediate phase. […] Once a free-flowing powder was isolated, the powder was stable in open-air for at least 7 days.

Data set [2] in a line: Salt-screening study (crystalline form screening of Compound 1 with counterions). It counts as physicochemical. The note with it: for formation of pure and stable crystalline salt form, overall salt screen: approximately 360 screening experiments, FT-Raman and PXRD. The protocol:
During the salt-screening step, 60 combinations of […] counterions with nine solvent systems were tested.
The screening studies were conducted in two stages.
In Stage 1, the samples involving counterion Nos. 1-6 listed in Table 1 were paired with solvent Nos. 1-6 listed in Table 2, whereas samples involving counterion Nos. 7 and 8 were paired with solvent Nos. 1-5 and 8.
In Stage 2, a few samples that remained undissolved and amorphous in the first stage were 1) subjected to rapid solvent evaporation under vacuum; 2) dissolved in solvent Nos. 7-9 listed in Table 2; 3) cooled to 5° C. and held at 5° C. for 72 hrs; and 4) allowed to evaporate at ambient conditions over 3-7 days.
(§1) All samples were inspected visually and by Polarized light microscopy at every step listed above to check any formation of crystalline products. Any crystalline products obtained from these procedures were isolated by vacuum filtration and, where possible, analyzed by FT-Raman. Unique crystalline products were subjected to further analyses by PXRD, DSC, TGA-IR, and HPLC, as necessary.

The conditions of data set [3]: counterion itself; cited from earlier work.
Data set [4] is described as follows: HPLC analysis of salt-screening products for decomposition. Format: physicochemical. The note with it: solvent system THF and Water (95:5 vol %).
Text: as §1

Data set [5] is described as follows: Chemical stability of Compound 1 in solution. The note with it: solutions having pH values between 2 and 8. It counts as physicochemical.
A short description of data set [6]: pKa of Compound 1. Format: physicochemical.
Data set [7] can be described thus: Solubility of Compound 1 in salt-screening solvents. It counts as physicochemical. The note with it: for solubility: organic solvent or mixture, read-out: solubility of Compound 1 (S). The method, then:
Nine solvent systems were evaluated in the Salt-screening study. The solvents were selected based on the solubility data accumulated during preceding studies. In addition, solvents represented a diverse set of polarities, dielectric constants, dipole moments, and hydrogen-bond donor/acceptor attributes to promote crystallization of salts.

Read-outs that look alike come from different tables or passages of the source. Some results are limits rather than exact numbers.

Regarding `O=C([O-])C[C@@H]1CC[C@H](NC(=O)Cc2cccs2)B(O)O1.[K+]` [Compound 1A, potassium salt of 2-((3R,6S)-2-hydroxy-3-(2-(thiophen-2-yl)acetamido)-1,2-oxaborinan-6-yl)acetic acid], in data set [1] (isolated in open air, reduced or eliminated under nitrogen blanket), the deliquescence on isolation entry was “may undergo deliquescence”. The “stability of isolated free-flowing powder in open-air” value in data set [1] (open air) is “at least 7 days”. In addition, the “formation of pure and stable crystalline salt form, overall salt screen” value (“formation” for short) in data set [2] was “yielded a pure and stable crystalline form”; in data set [2] (listed as potassium salt of compound 1) it was “yielded crystalline products”. Besides, the propensity for polymorphism entry in data set [2] (only one crystalline form observed in the study) is recorded as “low propensity for polymorphism”.

As to `CC(C)(C)[O-].[K+]` [Potassium t-butoxide], in data set [3], the pKa3 is reported as ~14.

For the compound `[K+]` [potassium], the “decomposition in screening products by HPLC” value (from here on “decomposition”) in data set [4] was “significant decomposition”.

For `[Ca+2].[OH-].[OH-]` [Calcium hydroxide], the “decomposition” value in data set [4] is “significant decomposition”. In data set [2], the “formation” value was “no pure and stable crystalline salt was formed”.

`C[N+](C)(C)CCO.[OH-]` [Choline hydroxide]: in data set [3], the pKa3 is on record as >11. Besides, the “decomposition” value in data set [4] was “significant decomposition”.

One may read the pKa as the pH at which an ionisable group is half protonated. Usually solubility stands for the concentration that dissolves in the medium under given conditions. For the compound `O=C(O)C[C@@H]1CC[C@H](NC(=O)Cc2cccs2)B(O)O1` [Compound 1, 2-((3R,6S)-2-hydroxy-3-(2-(thiophen-2-yl)acetamido)-1,2 oxaborinan-6-yl)acetic acid], the “chemical stability of boronic acid moiety in solution” value in data set [5] is listed as “chemically stable”. In addition, the pKa in data set [6] was found to be 3.92. The solubility in data set [7] (1,4-dioxane) is 1000 to 10000 µg/mL; in data set [7] (MTBE), < 1000 µg/mL; in data set [7] (THEF Water (95:5% vol.)), > 1000 µg/mL; in data set [7] (acetone), < 1000 µg/mL; in data set [7] (acetonitrile (ACN)) it was < 1000 µg/mL; in data set [7] (ethyl acetate), < 1000 µg/mL. Besides, the solubility in data set [7] (ACN: Water (90:10% vol.)) was < 20000 µg/mL. Besides, in data set [7] (Water), the “solubility of Compound 1” value is on record as “Low solubility of Compound 1”.

Regarding `[Mg+2].[OH-].[OH-]` [Magnesium hydroxide], the “decomposition” value in data set [4] is on record as “significant decomposition”. The “formation” value in data set [2] is “no pure and stable crystalline salt was formed”.
